Source: US10106515B2, “1-(cyclopent-2-en-1-yl)-3-(2-hydroxy-3-(arylsulfonyl)phenyl)urea derivatives as CXCR2 inhibitors” (GLAXOSMITHKLINE INTELLECTUAL PROPERTY DEVELOPMENT LIMITED, priority 2014, dated 2018)
Counter-ions that a name gives are not always drawn.

Biological target: T1, recombinant human CXCR2 (Homo sapiens, UniProt P25025)
T1 construct: TEV protease site; Gal4-VP16 transcription factor
T1 sequence (P25025 1-360): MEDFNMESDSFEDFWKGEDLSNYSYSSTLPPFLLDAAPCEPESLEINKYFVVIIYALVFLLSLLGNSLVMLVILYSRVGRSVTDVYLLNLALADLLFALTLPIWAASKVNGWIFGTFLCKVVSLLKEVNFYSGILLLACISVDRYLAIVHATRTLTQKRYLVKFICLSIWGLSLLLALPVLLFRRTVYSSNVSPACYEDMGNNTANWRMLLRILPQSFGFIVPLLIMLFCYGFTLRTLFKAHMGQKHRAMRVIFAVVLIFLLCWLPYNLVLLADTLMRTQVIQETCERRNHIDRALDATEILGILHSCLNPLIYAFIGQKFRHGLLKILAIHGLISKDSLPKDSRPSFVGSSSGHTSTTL
Assay: CXCR2 Tango assay
Type: cell-based
Conditions: mean pIC50 of multiple test results; stimulated with 80 nM hCXCL1; reporter gene blue/green emission ratio; read-out: pIC50 (CXCR2 Tango assay) (converted)
Text: The assay measures ligand-induced activation of the receptor CXCR2 in a stable cell line containing the recombinant human CXCR2 linked to a TEV protease site and a Gal4-VP16 transcription factor (Invitrogen). Ligand binding to the receptor results in the recruitment of arrestin proteins (tagged with protease) to the receptor and triggers the release of a tethered transcription factor. The transcription factor enters the nucleus and activates the transcription of the reporter gene. The ability of a compound to inhibit CXCR2 activation is indirectly assessed by measuring the reporter gene activity.
A vial of cryopreserved cells was removed from liquid nitrogen and rapidly thawed in a water bath at 37° C. with gentle agitation. The contents of the vial were transferred drop-wise into Thawing Medium in a sterile 15 ml conical tube and then centrifuged at 1000 rpm for 4-5 min. Then the cell pellets were resuspended in Assay Medium at a density of ˜200,000 cells/ml. All test compounds were dissolved in DMSO at a concentration of 10 mM and were prepared in 100% DMSO to provide 10 point dose response curves. A reference CXCR2 antagonist was added to wells in row 2, columns 1-5 & 7-11. Exemplified compounds 1-4, 7, 8-10, 13-22, 24-26, 28-30, 32, 33, 36, 37, 40, 42-44. 95-110, 115-118, 120, 121, 125, 126, 129-134, 137, 138, 140, 142, 147-149, 153-157, 159-162, 163-166, 168, 170, 172, 174-180 and 202 were tested using the CXCR2 antagonist sodium 3-chloro-6-(3-(2,3-dichlorophenyl)ureido)-2-sulfamoylphenolate as reference compound (Reference Compound 1) (published International patent application WO2002/079122). […] Test compounds were added to wells in row 2, columns 13-17 & 19-23 and rows 3-15, columns 1-5 & 7-11/13-17 & 19-23 (columns 6 and 18 as positive controls and un-stimulated controls respectively; columns 12 and 24 as cell-free control). Compounds in solution were added to the assay plate (Greiner 781090) using an Echo (Labcyte) concentration-response program (50 nl/well). The cell-free, un-stimulated and positive controls were loaded with 50 nl/well pure DMSO to ensure that the DMSO concentration was constant across the plate for all assays. Using Multi-drop Combi (Thermo) with standard cassette, 50 μl of Assay Medium was added to each well in the cell-free controls (columns 12 and 24); 50 μl of the cell suspension without hCXCL1 (a CXCR2 ligand) was added to each well in column 18 of the plate (˜10,000 cells per well); and 50 μl of the cell suspension with 80 nM hCXCL1 was added to the rest of wells of the plate (˜10,000 cells per well). The cells were incubated overnight at 37° C./5% CO2. 10 μl of 6× substrate mixture (LiveBLAzer™-FRET B/G substrate (CCF4-AM) Cat # K1096 from Invitrogen, Inc.) was added to each well using Multi-drop Combi (Thermo) with small-tube cassette and the plates incubated at room temperature for 2 h in the dark. The plate was finally read on EnVision using one excitation channel (409 nm) and two emission channels (460 nm and 530 nm).
The blue/green emission ratio (460 nm/530 nm) was calculated for each well, by dividing the background-subtracted Blue emission values by the background-subtracted Green emission values. The dose response curve was based on sigmoidal dose-response model. All ratio data was normalized based upon the maximum emission ratio of positive control (hCXCL1) and minimum emission ratio of negative control (DMSO) on each plate. The intrinsic activity (IA) of each compound would be the normalized percentage of its maximum response after curve fitting.
All exemplified compounds (except for Compounds 203 and 204) were tested in the CXCR2 Tango assay or a similar assay described above. The data mentioned below represents a mean pIC 50 value of multiple test results. It is understood that the data illustrated below may have reasonable variation depending on the specific conditions and procedures used by the person conducting the testing.

Row | IC50 [nM] | SMILES
1 | ≤ 1 | CC1=CCC[C@H]1NC(=O)Nc1ccc(Cl)c(S(=O)(=O)[C@H]2CC[C@H](O)C2)c1O (racemic) [Compound 45, (±)-trans-1-(4-chloro-2-hydroxy-3-((3-hydroxycyclopentyl)sulfonyl)phenyl)-3-((R)-2-methylcyclopent-2-en-1-yl)urea]
2 | ≤ 1 | CC1=CCC[C@H]1NC(=O)Nc1ccc(Cl)c(S(=O)(=O)C2CCC[C@@H]2O)c1O (mixture of isomers) [Compound 51, (±)trans-1-(4-chloro-2-hydroxy-3-((2-hydroxycyclopent-yl)sulfonyl)phenyl)-3-((R)-2-methylcyclopent-2-en-1-yl)urea, trifluoroacetic acid salt]
3 | ≤ 10 | COC1CCCCC1S(=O)(=O)c1c(Cl)ccc(NC(=O)NC2CCC=C2C)c1O (racemic) [Compound 150, (±)trans-1-(4-chloro-2-hydroxy-3-((2-methoxycyclohex-yl)sulfonyl)phenyl)-3-((R)-2-methylcyclopent-2-en-1-yl)urea]
4 | ≤ 10 | C[C@]1(S(=O)(=O)c2c(Cl)ccc(NC(=O)N[C@@H]3CCC=C3Cl)c2O)CCOC1 (single isomer, unassigned) [Compound 197]
5 | ≤ 10 | C[C@@]1(S(=O)(=O)c2c(Cl)ccc(NC(=O)N[C@@H]3CCC=C3Cl)c2O)CCOC1 (single isomer, unassigned) [Compound 198]
6 | ≤ 1 | CO[C@@H]1CC[C@@H](S(=O)(=O)c2c(Cl)ccc(NC(=O)N[C@@H]3CCC=C3C)c2O)C1 (stereo in doubt) [Compound 143, trans-1-(4-chloro-2-hydroxy-3-((3-methoxycyclopent-yl)sulfonyl)phenyl)-3-((R)-2-methylcyclopent-2-en-1-yl)urea]
7 | ≤ 10 | CC(C)(C(F)(F)F)S(=O)(=O)c1c(Cl)ccc(NC(=O)NC2C=CCC2)c1O (stereo not drawn) [Compound 1, 1-(4-chloro-2-hydroxy-3-((1,1,1-trifluoro-2-methylpropan-2-yl)sulfonyl)phenyl)-3-(cyclopent-2-en-1-yl)urea]
8 | ≤ 1 | CC(C)(C(F)(F)F)S(=O)(=O)c1c(Cl)ccc(NC(=O)NC2CCC=C2Cl)c1O (stereo not drawn) [Compound 2, 1-(4-chloro-2-hydroxy-3-((1,1,1-trifluoro-2-methylpropan-2-yl)sulfonyl)phenyl)-3-(2-chlorocyclopent-2-en-1-yl)urea]
9 | ≤ 10 | CC(C)(C)S(=O)(=O)c1c(Cl)ccc(NC(=O)NC2CCC=C2Cl)c1O (stereo not drawn) [Compound 3, 1-(3-(tert-butylsulfonyl)-4-chloro-2-hydroxyphenyl)-3-(2-chlorocyclopent-2-en-1-yl)urea]
10 | ≤ 10 | CC(C)(c1ccccn1)S(=O)(=O)c1c(Cl)ccc(NC(=O)NC2CCC=C2Cl)c1O (stereo not drawn) [Compound 4, 1-(4-chloro-2-hydroxy-3-((2-(pyridin-2-yl)propan-2-yl)sulfonyl)phenyl)-3-(2-chlorocyclopent-2-en-1-yl)urea, trifluoroacetic acid salt]
11 | ≤ 1 | CC(C)(CCO)S(=O)(=O)c1c(Cl)ccc(NC(=O)N[C@@H]2CCC=C2Cl)c1O [Compound 6, (R)-1-(4-chloro-2-hydroxy-3-((4-hydroxy-2-methylbutan-2-yl)sulfonyl)phenyl)-3-(2-chlorocyclopent-2-en-1-yl)urea]
12 | ≤ 10 | CC(C)(CF)S(=O)(=O)c1c(Cl)ccc(NC(=O)NC2C=CCC2)c1O (stereo not drawn) [Compound 9, 1-(4-chloro-3-((1-fluoro-2-methylpropan-2-yl)sulfonyl)-2-hydroxyphenyl)-3-(cyclopent-2-en-1-yl)urea]
13 | ≤ 10 | CC(C)(CF)S(=O)(=O)c1c(Cl)ccc(NC(=O)NC2CCC=C2Cl)c1O (stereo not drawn) [Compound 10, 1-(4-chloro-3-((1-fluoro-2-methylpropan-2-yl)sulfonyl)-2-hydroxyphenyl)-3-(2-chlorocyclopent-2-en-1-yl)urea]
14 | ≤ 10 | CC(C)(CO)S(=O)(=O)c1c(Cl)ccc(NC(=O)N[C@@H]2CCC=C2Cl)c1O [Compound 12, (R)-1-(4-chloro-2-hydroxy-3-((1-hydroxy-2-methylpropan-2-yl)sulfonyl)phenyl)-3-(2-chlorocyclopent-2-en-1-yl)urea]
15 | ≤ 10 | CC(C)(F)S(=O)(=O)c1c(Cl)ccc(NC(=O)NC2C=CCC2)c1O (stereo not drawn) [Compound 14, 1-(4-chloro-3-((2-fluoropropan-2-yl)sulfonyl)-2-hydroxyphenyl)-3-(cyclopent-2-en-1-yl)urea]
16 | ≤ 10 | CC(C)(F)S(=O)(=O)c1c(Cl)ccc(NC(=O)NC2CCC=C2Cl)c1O (stereo not drawn) [Compound 15, 1-(4-chloro-3-((2-fluoropropan-2-yl)sulfonyl)-2-hydroxyphenyl)-3-(2-chlorocyclopent-2-en-1-yl)urea]
17 | ≤ 10 | CC1=C(Cl)CCC1NC(=O)Nc1ccc(Cl)c(S(=O)(=O)C(C)C)c1O (stereo not drawn) [Compound 16, 1-(4-chloro-2-hydroxy-3-(isopropylsulfonyl)phenyl)-3-(3-chloro-2-methylcyclopent-2-en-1-yl)urea]
18 | ≤ 10 | CC1=C(F)CCC1NC(=O)Nc1ccc(Cl)c(S(=O)(=O)C(C)C)c1O (stereo not drawn) [Compound 17, 1-(4-chloro-2-hydroxy-3-(isopropylsulfonyl)phenyl)-3-(3-fluoro-2-methylcyclopent-2-en-1-yl)urea]
19 | ≤ 10 | CC(C)S(=O)(=O)c1c(Cl)ccc(NC(=O)NC2C=CCC2)c1O (stereo not drawn) [Compound 18, 1-(4-chloro-2-hydroxy-3-(isopropylsulfonyl)phenyl)-3-(cyclopent-2-en-1-yl)urea]
20 | ≤ 1 | CC(C)S(=O)(=O)c1c(Cl)ccc(NC(=O)NC2CCC=C2Cl)c1O (stereo not drawn) [Compound 21, 1-(4-chloro-2-hydroxy-3-(isopropylsulfonyl)phenyl)-3-(2-chlorocyclopent-2-en-1-yl)urea]
21 | ≤ 10 | CC(C)S(=O)(=O)c1c(Cl)ccc(NC(=O)NC2CCC=C2F)c1O (stereo not drawn) [Compound 22, 1-(4-chloro-2-hydroxy-3-(isopropylsulfonyl)phenyl)-3-(2-fluorocyclopent-2-en-1-yl)urea]
22 | ≤ 10 | CC(c1ccccn1)S(=O)(=O)c1c(Cl)ccc(NC(=O)NC2C=CCC2)c1O (stereo not drawn) [Compound 24, 1-(4-chloro-2-hydroxy-3-((1-(pyridin-2-yl)ethyl)sulfonyl)phenyl)-3-(cyclopent-2-en-1-yl)urea, trifluoroacetic acid salt]
23 | ≤ 10 | CC1=CCCC1NC(=O)Nc1ccc(Cl)c(S(=O)(=O)C(C)c2ccccn2)c1O (stereo not drawn) [Compound 25, 1-(4-chloro-2-hydroxy-3-((1-(pyridin-2-yl)ethyl)sulfonyl)phenyl)-3-(2-methylcyclopent-2-en-1-yl)urea, trifluoroacetic acid salt]
24 | ≤ 10 | CC(c1ccccn1)S(=O)(=O)c1c(Cl)ccc(NC(=O)NC2CCC=C2Cl)c1O (stereo not drawn) [Compound 26, 1-(4-chloro-2-hydroxy-3-((1-(pyridin-2-yl)ethyl)sulfonyl)phenyl)-3-(2-chlorocyclopent-2-en-1-yl)urea]
